Values quoted from earlier work, collected in US20110082867A1, “SYSTEM, METHOD, AND COMPUTER PROGRAM PRODUCT FOR ANALYZING DRUG INTERACTIONS” (priority 2009, published 2011).

Legend:
[1] = biological target: CYP 2E1 (Homo sapiens, UniProt P05181); conditions: Gene CYP 2E1; involvement strength and type
[2] = biological target: T1, CYP 2A6 (Homo sapiens, UniProt P11509); conditions: Gene CYP 2A6; involvement strength and type
T1 sequence (P11509 1-494): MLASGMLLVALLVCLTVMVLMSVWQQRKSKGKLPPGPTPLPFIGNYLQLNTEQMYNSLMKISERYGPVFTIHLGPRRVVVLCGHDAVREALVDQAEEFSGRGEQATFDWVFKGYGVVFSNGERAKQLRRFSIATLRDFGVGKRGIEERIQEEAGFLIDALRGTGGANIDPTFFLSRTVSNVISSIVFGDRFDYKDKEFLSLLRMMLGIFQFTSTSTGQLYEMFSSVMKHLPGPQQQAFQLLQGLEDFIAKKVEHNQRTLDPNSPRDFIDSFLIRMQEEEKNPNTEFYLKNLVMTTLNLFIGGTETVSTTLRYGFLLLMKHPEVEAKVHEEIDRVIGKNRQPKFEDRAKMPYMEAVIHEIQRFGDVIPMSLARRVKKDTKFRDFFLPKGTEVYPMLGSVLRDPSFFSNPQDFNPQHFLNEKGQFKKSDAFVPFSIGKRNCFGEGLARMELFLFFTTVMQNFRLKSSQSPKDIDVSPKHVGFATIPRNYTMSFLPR

[3] = biological target: CYP 2D6 (Homo sapiens, UniProt P10635); conditions: Gene CYP 2D6; involvement strength and type
CYP 2D6, sequence (P10635 whole entry): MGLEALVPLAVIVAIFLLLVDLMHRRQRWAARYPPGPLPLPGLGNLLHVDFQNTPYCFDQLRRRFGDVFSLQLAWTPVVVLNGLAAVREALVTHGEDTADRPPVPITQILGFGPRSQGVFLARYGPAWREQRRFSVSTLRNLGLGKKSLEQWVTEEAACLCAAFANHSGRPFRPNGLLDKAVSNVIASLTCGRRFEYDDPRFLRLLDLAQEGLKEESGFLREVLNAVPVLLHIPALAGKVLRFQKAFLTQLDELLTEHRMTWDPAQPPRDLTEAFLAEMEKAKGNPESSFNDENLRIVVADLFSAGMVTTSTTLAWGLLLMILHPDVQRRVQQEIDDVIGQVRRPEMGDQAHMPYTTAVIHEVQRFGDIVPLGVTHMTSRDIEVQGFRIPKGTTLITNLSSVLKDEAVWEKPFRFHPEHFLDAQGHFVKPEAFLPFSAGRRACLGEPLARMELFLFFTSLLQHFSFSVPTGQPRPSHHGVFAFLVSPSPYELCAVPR

[4] = biological target: T2, CYP 1A2 (Homo sapiens, UniProt P05177); conditions: Gene CYP 1A2; involvement strength and type
T2 sequence (P05177 1-516): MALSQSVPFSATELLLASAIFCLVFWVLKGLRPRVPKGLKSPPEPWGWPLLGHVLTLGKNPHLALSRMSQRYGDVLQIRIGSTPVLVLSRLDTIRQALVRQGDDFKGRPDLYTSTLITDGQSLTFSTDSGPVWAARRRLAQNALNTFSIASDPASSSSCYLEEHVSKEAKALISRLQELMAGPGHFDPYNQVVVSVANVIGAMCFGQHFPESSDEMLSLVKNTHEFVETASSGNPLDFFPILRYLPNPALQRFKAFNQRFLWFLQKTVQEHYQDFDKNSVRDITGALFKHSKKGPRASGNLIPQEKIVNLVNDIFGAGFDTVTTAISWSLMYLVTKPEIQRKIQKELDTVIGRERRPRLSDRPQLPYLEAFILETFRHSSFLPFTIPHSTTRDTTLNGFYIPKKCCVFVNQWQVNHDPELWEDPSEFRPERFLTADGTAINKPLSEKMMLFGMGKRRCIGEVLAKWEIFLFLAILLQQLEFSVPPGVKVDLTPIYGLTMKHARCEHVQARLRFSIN

[5] = biological target: CYP 3A4 (Homo sapiens, UniProt P08684); conditions: Gene CYP 3A4; involvement strength and type
CYP 3A4, sequence (P08684 whole entry): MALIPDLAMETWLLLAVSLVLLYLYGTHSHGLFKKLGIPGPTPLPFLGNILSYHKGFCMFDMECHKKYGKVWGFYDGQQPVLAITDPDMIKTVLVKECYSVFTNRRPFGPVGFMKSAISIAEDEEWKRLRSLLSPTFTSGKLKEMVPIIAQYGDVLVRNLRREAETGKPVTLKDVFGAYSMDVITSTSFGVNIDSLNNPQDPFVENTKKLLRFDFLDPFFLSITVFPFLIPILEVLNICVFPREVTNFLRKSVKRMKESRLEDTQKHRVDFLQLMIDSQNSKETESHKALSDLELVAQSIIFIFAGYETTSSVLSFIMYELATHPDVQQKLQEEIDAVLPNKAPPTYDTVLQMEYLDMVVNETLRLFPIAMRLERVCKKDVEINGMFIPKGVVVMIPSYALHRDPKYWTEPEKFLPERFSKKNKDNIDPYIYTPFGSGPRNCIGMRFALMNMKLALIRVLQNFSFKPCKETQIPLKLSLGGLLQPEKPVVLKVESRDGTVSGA

[6] = biological target: CYP 2C9 (Homo sapiens, UniProt P11712); conditions: Gene CYP 2C9; involvement strength and type
CYP 2C9, sequence (P11712 whole entry): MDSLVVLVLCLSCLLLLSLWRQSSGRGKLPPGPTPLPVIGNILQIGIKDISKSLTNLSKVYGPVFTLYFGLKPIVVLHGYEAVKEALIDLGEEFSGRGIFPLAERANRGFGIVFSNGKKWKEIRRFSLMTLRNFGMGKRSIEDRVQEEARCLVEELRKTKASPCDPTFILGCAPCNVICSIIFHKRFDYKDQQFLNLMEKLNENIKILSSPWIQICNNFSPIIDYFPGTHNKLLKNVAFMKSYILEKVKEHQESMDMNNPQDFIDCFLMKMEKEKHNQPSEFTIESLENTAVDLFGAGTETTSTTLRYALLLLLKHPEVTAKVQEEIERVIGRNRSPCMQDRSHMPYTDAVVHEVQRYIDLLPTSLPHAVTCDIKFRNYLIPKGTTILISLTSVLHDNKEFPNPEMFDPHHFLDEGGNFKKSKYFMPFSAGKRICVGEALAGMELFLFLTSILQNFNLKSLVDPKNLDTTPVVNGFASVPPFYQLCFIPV

CYP 2E1, sequence (P05181 whole entry): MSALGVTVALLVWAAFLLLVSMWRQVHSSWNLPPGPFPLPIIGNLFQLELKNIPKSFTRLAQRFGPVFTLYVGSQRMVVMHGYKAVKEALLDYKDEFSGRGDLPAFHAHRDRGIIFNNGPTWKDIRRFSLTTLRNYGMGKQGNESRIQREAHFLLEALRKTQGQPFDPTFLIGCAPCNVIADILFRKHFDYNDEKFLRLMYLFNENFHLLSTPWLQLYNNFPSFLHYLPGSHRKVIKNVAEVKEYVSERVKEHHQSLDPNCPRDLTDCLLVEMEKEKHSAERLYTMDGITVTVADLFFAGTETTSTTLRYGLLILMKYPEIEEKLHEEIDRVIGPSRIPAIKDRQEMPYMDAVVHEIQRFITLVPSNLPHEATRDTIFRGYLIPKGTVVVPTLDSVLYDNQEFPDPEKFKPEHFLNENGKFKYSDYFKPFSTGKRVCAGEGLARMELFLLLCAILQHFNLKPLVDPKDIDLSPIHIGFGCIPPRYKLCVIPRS

In the case of `CC(=O)Nc1ccc(O)cc1` [Acetaminophen], the “Drug Interaction” value [1] is given as “Major Substrate”, the “Drug Interaction” value [2] is given as “Minor Substrate” and the “Drug Interaction” value [3] is given as “Minor Substrate”. For the same compound, the “Drug Interaction” value [4] was “Minor Substrate” and the “Drug Interaction” value [5] was “Minor Substrate”.

In the case of `COc1ccc2c3c1O[C@H]1[C@@H](O)C=C[C@H]4[C@@H](C2)N(C)CC[C@@]341` [Codeine], the “Drug Interaction” value [3] is listed as “Major Substrate”.

For `CC(=O)CC(c1ccccc1)c1c(O)c2ccccc2oc1=O` (stereo not shown) [Warfarin], the “Drug Interaction” value [6] is listed as “Major Substrate”.
